IC50 and EC50 data for 31 compounds are collected here from US12559474B2, “Triazine derivatives having virus replication inhibitory activity and pharmaceutical composition comprising the same” (priority 2021, dated 2026).

One may read the IC50 as the midpoint of a concentration-inhibition curve. Usually EC50 stands for the midpoint of the concentration-response curve. A higher EC50 goes with a less potent agent.

Test [1] has as its target SARS-CoV-2 3CL protease (Severe acute respiratory syndrome coronavirus 2, UniProt P0DTD1). Nature of the test: biochemical. Conditions: 50% SARS-CoV-2 3CL protease inhibitory concentration, read-out: IC50.
Test [2] deals with SARS-CoV-2. Nature of the test: microbe, parasite or virus in culture. The test is classed as cell-based. Conditions: Severe acute respiratory syndrome coronavirus 2, VeroE6/TMPRSS2, 72 h, 50% SARS-CoV-2 infected cell death inhibitory concentration, VeroE6/TMPRSS2 cells, 3 days culture.

Like-named read-outs stand apart in the source and are kept apart here.

For `Cn1cnc(Cn2c(=O)nc(Nc3cc4cn(C)nc4cc3Cl)n(Cc3cc(F)c(F)cc3Cl)c2=O)n1` [II-0405], the IC50 in test [1] (given as class symbols) was less than 100 nM. The EC50 in test [2] (class symbols) is less than 1000 nM.

In the case of `Cc1cncc(-n2c(=O)nc(Nc3cc4cn(CC(F)F)nc4cc3Cl)n(Cc3cc(F)c(F)c(F)c3)c2=O)c1` [II-0090], in test [1] (RapidFire MS), the IC50 was 16 nM. The compound further registered an EC50 in test [2] (CellTiter-Glo 2.0) of 355 nM.

Consider `Cc1cc2nn(C)cc2cc1Nc1nc(=O)n(-c2cncc3ccccc23)c(=O)n1Cc1ccc(F)c(C#N)c1` [Compound I-0431], for which the IC50 in test [1] (given as class symbols) is less than 100 nM. For the same compound, the EC50 in test [2] (class symbols) was less than 1000 nM.

With `Cn1cnc(Cn2c(=O)nc(Nc3cc4cn(CC5CCCO5)nc4cc3Cl)n(Cc3cc(Cl)c(F)cc3F)c2=O)n1` (racemic) [II-0409], the IC50 in test [1] (given as class symbols) was less than 100 nM. In addition, the EC50 in test [2] (class symbols) fell in the range of 1000 to 10000 nM.

With `COc1ccc(Nc2nc(=O)n(Cc3ccc[nH]c3=O)c(=O)n2Cc2cc(Cl)cc(Cl)c2)cc1` [Compound I-0213], the IC50 in test [1] (given as class symbols) was less than 100 nM. Also, the EC50 in test [2] (class symbols) lay in the range of 1000 to 10000 nM.

Take `CC1c2ccccc2CN1c1nc(=O)n(Cc2ccc[nH]c2=O)c(=O)n1Cc1cc(F)c(F)c(F)c1` (centres unmarked) [II-0213]: in test [1] (given as class symbols), the IC50 is less than 100 nM. The same compound came in with an EC50 in test [2] (class symbols) of 1000 to 10000 nM.

For `CNc1cncc(-n2c(=O)nc(Nc3cc4cn(C)nc4cc3Cl)n(Cc3cc(C#N)c(F)cc3Cl)c2=O)c1` [II-0598], in test [1] (given as class symbols), the IC50 was less than 100 nM. In test [2] (class symbols), the EC50 was less than 1000 nM.

As for `Cc1cncc(-n2c(=O)nc(Nc3cc4cn(C[C@H](C)O)nc4cc3Cl)n(Cc3cc(F)c(F)cc3F)c2=O)c1` [II-0100], the IC50 in test [1] (given as class symbols) is less than 100 nM. In addition, in test [2] (class symbols), the EC50 was less than 1000 nM.

Regarding `Cn1cnc(Cn2c(=O)nc(Nc3cc4cn(CCO)nc4cc3Cl)n(Cc3cc(F)c(F)c(Cl)c3)c2=O)n1` [II-0307], the IC50 in test [1] (given as class symbols) is less than 100 nM. The EC50 in test [2] (class symbols) is 1000 to 10000 nM.

With `CNc1nc2cc(Cl)c(Nc3nc(=O)n(-c4cncc(C)c4)c(=O)n3Cc3ccc(F)c(C#N)c3)cc2s1` [II-0382], in test [1] (given as class symbols), the IC50 is less than 100 nM. Besides, the EC50 in test [2] (class symbols) was less than 1000 nM.

With `C#Cc1cc(F)c(F)cc1Cn1c(Nc2cc3cn(C)nc3cc2Cl)nc(=O)n(-c2cncc(C)c2)c1=O` [II-0065], the IC50 in test [1] (given as class symbols) was less than 100 nM. This compound gave an EC50 in test [2] (class symbols) of less than 1000 nM.

As for `CC(=O)Nc1nc2cc(Cl)c(Nc3nc(=O)n(-c4cncc(C)c4)c(=O)n3Cc3cc(F)c(F)cc3F)cc2s1` [II-0563], in test [1] (given as class symbols), the IC50 was less than 100 nM. In addition, the EC50 in test [2] (class symbols) is 1000 to 10000 nM.

With `CNc1nc2cc(Cl)c(Nc3nc(=O)n(-c4cncc(C)c4)c(=O)n3Cc3cc(C#N)ccc3Cl)cc2o1` [II-0545], in test [1] (RapidFire MS), the IC50 is 8.6 nM. In test [2] (CellTiter-Glo 2.0), this compound yielded an EC50 of 750 nM.

As for `Cc1cncc(-n2c(=O)nc(Nc3cc4c(cc3Cl)OCC4)n(Cc3cc(F)c(F)c(C#N)c3)c2=O)c1` [II-0131], the IC50 in test [1] (given as class symbols) is less than 100 nM. Also, in test [2] (class symbols), the EC50 is less than 1000 nM.

For the compound `Cc1cncc(-n2c(=O)nc(Nc3cc4cccnc4cc3Cl)n(Cc3ccc(F)c(C#N)c3)c2=O)c1` [II-0463], the IC50 in test [1] (given as class symbols) was less than 100 nM. Moreover, the EC50 in test [2] (class symbols) was less than 1000 nM.

On to `Cc1cncc(-n2c(=O)nc(Nc3cc4cn(C)nc4cc3Cl)n(Cc3cc(C#N)c(F)cc3CC(C)C)c2=O)c1` [II-0023], for which the IC50 in test [1] (given as class symbols) was less than 100 nM. In addition, the EC50 in test [2] (class symbols) is less than 1000 nM.

Regarding `Cc1cncc(-n2c(=O)nc(Nc3cc4c(cc3C)OCC4)n(Cc3cc(F)c(F)c(F)c3)c2=O)c1` [II-0219], the IC50 in test [1] (given as class symbols) was less than 100 nM. In addition, the EC50 in test [2] (class symbols) fell in the range of 1000 to 10000 nM.

With `Cc1cncc(-n2c(=O)nc(Nc3cc4cn(C)nc4cc3F)n(Cc3cc(F)c(F)cc3F)c2=O)c1` [II-0528], the IC50 in test [1] (given as class symbols) was less than 100 nM. Also, the EC50 in test [2] (class symbols) is less than 1000 nM.

`CN(C)C(=O)c1ccc(Cn2c(=O)nc(Nc3cc4c(cc3Cl)OCC4)n(Cc3cc(F)c(F)c(F)c3)c2=O)c(=O)[nH]1` [Compound I-0064]: in test [1] (given as class symbols), the IC50 was less than 100 nM. This compound also had an EC50 in test [2] (class symbols) of 1000 to 10000 nM.

Regarding `N#Cc1cc(Cn2c(Nc3ccc4nn(CC(F)F)cc4c3)nc(=O)n(-c3cncc4ccccc34)c2=O)ccc1F` [Compound I-0352], the IC50 in test [1] (given as class symbols) was less than 100 nM. In test [2] (class symbols), this compound gave an EC50 of less than 1000 nM.

Take `COc1ccc(Nc2nc(=O)n(Cc3ccc[nH]c3=O)c(=O)n2Cc2ccc(F)c(Br)c2)cc1` [Compound I-0196]: in test [1] (given as class symbols), the IC50 is less than 100 nM. In test [2] (class symbols), this compound showed an EC50 of 1000 to 10000 nM.

On to `Cn1cc2cc(Nc3nc(=O)n(-c4cncc(Cl)c4)c(=O)n3Cc3cc(C#N)ccc3Cl)ccc2n1` [II-0523], for which the IC50 in test [1] (RapidFire MS) came out at 11 nM. The EC50 in test [2] (CellTiter-Glo 2.0) was determined as 240 nM.

On to `CC(C)(Nc1nc(=O)n(Cc2ccc[nH]c2=O)c(=O)n1Cc1cc(F)c(F)c(F)c1)c1ccccc1F` [II-0482], for which the IC50 in test [1] (RapidFire MS) was found to be 410 nM. In addition, a half-maximal response in test [2] (CellTiter-Glo 2.0) (EC50) required 44500 nM.

With `Cc1cncc(-n2c(=O)nc(Nc3cc4cn(C)nc4cc3F)n(Cc3cc(C#N)c(F)cc3C)c2=O)c1` [II-0504], the IC50 in test [1] (given as class symbols) is less than 100 nM. For the same compound, the EC50 in test [2] (class symbols) was less than 1000 nM.

Turning to `Cn1cc2cc(Nc3nc(=O)n(-c4cncc5ccccc45)c(=O)n3Cc3ccc(F)c(C#N)c3)c(Cl)cc2n1` [Compound I-0379], the IC50 in test [1] (given as class symbols) is less than 100 nM. Further, the EC50 in test [2] (class symbols) is less than 1000 nM.

As to `O=c1[nH]cccc1Cn1c(=O)nc(Nc2cc3cn(CCCO)nc3cc2Cl)n(Cc2cc(F)c(F)c(F)c2)c1=O` [Compound I-0450], in test [1] (given as class symbols), the IC50 is less than 100 nM. For the same compound, in test [2] (class symbols), the EC50 lay within 1000 to 10000 nM.

For `COC(=O)Nc1nc2cc(Cl)c(Nc3nc(=O)n(-c4cncc(C)c4)c(=O)n3Cc3ccc(F)c(C#N)c3)cc2s1` [II-0074], the IC50 in test [1] (RapidFire MS) stood at 3.6 nM. The compound further came in with an EC50 in test [2] (CellTiter-Glo 2.0) of 248 nM.

For the compound `CNc1nc2cc(Cl)c(Nc3nc(=O)n(Cc4ncn(C)n4)c(=O)n3Cc3cc(F)c(F)c(F)c3)cc2o1` [II-0061], in test [1] (given as class symbols), the IC50 was less than 100 nM. In test [2] (class symbols), this compound had an EC50 of 1000 to 10000 nM.

As to `Cc1cncc(-n2c(=O)nc(Nc3cc4cn(CC(F)F)nc4cc3Cl)n(Cc3cc(F)c(F)cc3F)c2=O)c1` [II-0574], in test [1] (RapidFire MS), the IC50 was 9.2 nM. This compound yielded an EC50 in test [2] (CellTiter-Glo 2.0) of 200 nM.

In the case of `Cc1cncc(-n2c(=O)nc(Nc3cc4oc(C)nc4cc3F)n(Cc3ccc(F)c(C#N)c3)c2=O)c1` [II-0107], the IC50 in test [1] (given as class symbols) is less than 100 nM. Moreover, the EC50 in test [2] (class symbols) is 1000 to 10000 nM.

Regarding `Cn1ccc(-c2ccnc(Cn3c(=O)nc(Nc4cc5cn(C)nc5cc4Cl)n(Cc4cc(F)c(F)cc4F)c3=O)c2)n1` [II-0247], the IC50 in test [1] (given as class symbols) was less than 100 nM. The same compound gave an EC50 in test [2] (class symbols) of less than 1000 nM.
